Our source for the GI50 values is patent publication US20220332701A1, “HETEROCYCLIC COMPOUNDS AS BCR-ABL INHIBITORS” (ASCENTAGE PHARMA (SUZHOU) CO., LTD., priority 2019, published 2022).

In assay [1] the target is BaF3(WT) (Homo sapiens, UniProt P00519). Description: WST (CCK-8) anti-proliferation assay, BaF3 WT cells. Particulars: read-out: BaF3(WT); anti-proliferative IC50, 72 h treatment, CCK-8, BaF3 WT.
Procedure: (§1) The anti-proliferative effect of representative Compounds of the Disclosure was determined by a water-soluble tetrazolium (WST)-based assay using Cell Counting Kit-8 (CCK-8). Cells were seeded in 96-well plates and treated with different concentrations of test articles for 72 h. Each treatment was tested in triplicates. Briefly, a series of 9 concentrations were chosen for each test article and added at 100 μl/well into a 96-well plate. Each concentration was tested in triplicates. 100 μl of diluent was added into 3-6 wells in the same plate for cell control group, and another set of 3-6 wells was used as a blank control.
(§2) In each well, 100 μl of cell suspension (containing optimal cell numbers, which creates approximately 100% confluence of cells in control wells based on by the absorbance (OD) value) was dispensed into the same 96-well plate except for the blank well. The plate was then cultured at 37° C. in an incubator in an atmosphere with 5% CO2 for 72 h. At the end of treatments, 20 μl/well of CCK-8 reagent was directly added to each wells. The plate was then incubated at 37° C. in an incubator in an atmosphere with 5% CO2 for 2-4 hour.
(§3) The cells viability was calculated using the mean OD value of triplicated wells following the equation below: (OD sample−OD blank)/(OD cell control−OD blank)×100 IC50 values were calculated with Graphpad Prism 6.0 software using nonlinear regression (curve fitting) type data analysis.
For assay [2], the target named is BaF3(T315I) (Homo sapiens, UniProt P00519, T315I, cells depend on it). Description: WST (CCK-8) anti-proliferation assay, BaF3 T315I cells. The following applies: read-out: BaF3(T315I); anti-proliferative IC50, 72 h treatment, CCK-8, BaF3 T315I.
Procedure: as §1, §2, §3

SMILES strings stand for the structures.

Regarding `CC(C)N1c2c(cc(C(=O)Nc3ccc(OC(F)(F)Cl)cc3)cc2-c2ccn[nH]2)CC1C(=O)N1CCS(=O)(=O)CC1` (stereo not shown) [VII-31, N-(4-(chlorodifluoromethoxy)phenyl)-2-(1,1-dioxidothiomorpholine-4-carbonyl)-1-isopropyl-7-(1H-pyrazol-5-yl)indoline-5-carboxamide], the GI50 in assay [1] is 78 nM; in assay [2] it was 423 nM. Consider `CC(C)N1CCc2cc(C(=O)Nc3ccc(OC(F)(F)Cl)cc3)cc(-c3ccn[nH]3)c21` [VII-1, N-(4-(chlorodifluoromethoxy)phenyl)-1-isopropyl-7-(1H-pyrazol-5-yl)indoline-5-carboxamide], for which the figures for the GI50 in assay [1] and in assay [2] were 26 nM and 91 nM, respectively. Turning to `CC(C)N1CCCCc2cc(C(=O)Nc3ccc(OC(F)(F)Cl)cc3)cc(-c3ccn[nH]3)c21` [X-1, N-(4-(chlorodifluoromethoxy)phenyl)-1-isopropyl-9-(1H-pyrazol-5-yl)-2,3,4,5-tetrahydro-1H-benzo[b]azepine-7-carboxamide], the GI50 in assay [1] is 67 nM; in assay [2], 1290 nM. As for `CNCC1Cc2cc(C(=O)Nc3ccc(OC(F)(F)Cl)cc3)cc(-c3ccn[nH]3)c2N1C(C)C` (stereo not shown) [VII-17, N-(4-(chlorodifluoromethoxy)phenyl)-1-isopropyl-2-((methylamino)methyl)-7-(1H-pyrazol-5-yl) indoline-5-carboxamide], the GI50 was determined as 584 nM in assay [1] and 3230 nM in assay [2]. `CC(C)N1c2c(cc(C(=O)Nc3ccc(OC(F)(F)Cl)cc3)cc2-c2cncnc2)CC1C(=O)N1CCOCC1` (stereo not shown) [VII-23, N-(4-(chlorodifluoromethoxy)phenyl)-1-isopropyl-2-(morpholine-4-carbonyl)-7-(pyrimidin-5-yl)indoline-5-carboxamide]: the GI50 came to 17 nM in assay [1] and 146 nM in assay [2]. For the molecule `CC(C)N1c2c(cc(C(=O)Nc3ccc(OC(F)(F)Cl)cc3)cc2-c2ccn[nH]2)CC1CC(=O)N(C)C` (stereo not shown) [VII-36, N-(4-(chlorodifluoromethoxy)phenyl)-2-(2-(dimethylamino)-2-oxoethyl)-1-isopropyl-7-(1H-pyrazol-5-yl)indoline-5-carboxamide], the GI50 in assay [1] turned out to be 231 nM; in assay [2], 1740 nM. For the molecule `CN1CC(C)(C)c2c(-c3ccn[nH]3)cc(C(=O)Nc3ccc(OC(F)(F)Cl)cc3)cc21` [III-2, N-(4-(chlorodifluoromethoxy)phenyl)-1,3,3-trimethyl-4-(1H-pyrazol-5-yl)indoline-6-carboxamide], the GI50 in assay [1] came to 78 nM; in assay [2], 2060 nM.

`O=C(Nc1ccc(OC(F)(F)Cl)cc1)c1cc2c(c(-c3ccn[nH]3)c1)C1(CCCC1)C(=O)N2` [V-3, N-(4-(chlorodifluoromethoxy)phenyl)-2′-oxo-4′-(1H-pyrazol-5-yl)spiro[cyclopentane-1,3′-indoline]-6′-carboxamide]: the values for the GI50 in assay [1] and in assay [2] were 22 nM and 136 nM, respectively. In the case of `CC(C)n1cc(Cl)c2cc(C(=O)Nc3ccc(OC(F)(F)Cl)cc3)cc(-c3cncnc3)c21` [XII-4, 3-chloro-N-(4-(chlorodifluoromethoxy)phenyl)-1-isopropyl-7-(pyrimidin-5-yl)-1H-indole-5-carboxamide], the GI50 was found to be 128 nM in assay [1] and 726 nM in assay [2].

Take `CC1CN(C(C)C)c2c(-c3cncnc3)cc(C(=O)Nc3ccc(OC(F)(F)Cl)cc3)cc21` (stereo not shown) [VII-37, N-(4-(chlorodifluoromethoxy)phenyl)-1-isopropyl-3-methyl-7-(pyrimidin-5-yl)indoline-5-carboxamide]: the GI50 in assay [1] was 41 nM; in assay [2], 395 nM. For the molecule `CN1C(=O)c2cc(C(=O)Nc3ccc(OC(F)(F)Cl)cc3)cc(-c3cccnc3)c2C1(C)C` [IV-9, N-(4-(chlorodifluoromethoxy)phenyl)-1,1,2-trimethyl-3-oxo-7-(pyridin-3-yl)isoindoline-5-carboxamide], the GI50 is 77 nM in assay [1] and 107 nM in assay [2]. In the case of `Cc1ccc(-c2cc(C(=O)Nc3ccc(OC(F)(F)Cl)cc3)cc3c2C(C)(C)N(C)C3=O)s1` [IV-3, N-(4-(chlorodifluoromethoxy)phenyl)-1,1,2-trimethyl-7-(5-methylthiophen-2-yl)-3-oxoisoindoline-5-carboxamide], the GI50 in assay [1] was found to be 132 nM; in assay [2] it was 2380 nM. For `CC(C)N1C(=O)C(C)(C)c2cc(C(=O)Nc3ccc(OC(F)(F)Cl)cc3)cc(-c3cncnc3)c21` [VIII-2, N-(4-(chlorodifluoromethoxy)phenyl)-1-isopropyl-3,3-dimethyl-2-oxo-7-(pyrimidin-5-yl)indoline-5-carboxamide], in that order: 359 nM and 1990 nM. With `CC(C)N1c2c(cc(C(=O)Nc3ccc(OC(F)(F)Cl)cc3)cc2-c2ccn[nH]2)CC1CN(C)C` (stereo not shown) [VII-13, N-(4-(chlorodifluoromethoxy)phenyl)-2-((dimethylamino)methyl)-1-isopropyl-7-(1H-pyrazol-5-yl)indoline-5-carboxamide], the GI50 in assay [1] stood at 266 nM; in assay [2], 1410 nM. For the molecule `CC(C)N1c2c(cc(C(=O)Nc3ccc(OC(F)(F)Cl)cc3)cc2-c2cncnc2)CC1C(=O)NCCS(C)(=O)=O` (stereo not shown) [VII-22, N5-(4-(chlorodifluoromethoxy)phenyl)-1-isopropyl-N2-(2-(methylsulfonyl)ethyl)-7-(pyrimidin-5-yl)indoline-2,5-dicarboxamide], the GI50 was found to be 145 nM in assay [1] and 1350 nM in assay [2]. For `CC1CN(C(C)C)c2c(cc(C(=O)Nc3ccc(OC(F)(F)Cl)cc3)cc2-c2ccn[nH]2)O1` (stereo not shown) [IX-4, N-(4-(chlorodifluoromethoxy)phenyl)-4-isopropyl-2-methyl-5-(1H-pyrazol-5-yl)-3,4-dihydro-2H-benzo[b][1,4]oxazine-7-carboxamide], in that order: 33 nM and 3110 nM.

With `CN1CCC2(CC1)C(=O)Nc1cc(C(=O)Nc3ccc(OC(F)(F)Cl)cc3)cc(-c3ccn[nH]3)c12` [V-10, N-(4-(chlorodifluoromethoxy)phenyl)-1′-methyl-2-oxo-4-(1H-pyrazol-5-yl)spiro[indoline-3,4′-piperidine]-6-carboxamide], the GI50 came out at 110 nM in assay [1] and 921 nM in assay [2].

With `Cc1ccc(-c2cc(C(=O)Nc3ccc(OC(F)(F)Cl)cc3)cc3c2C(C)(C)N(C)C3=O)o1` [IV-2, N-(4-(chlorodifluoromethoxy)phenyl)-1,1,2-trimethyl-7-(5-methylfuran-2-yl)-3-oxoisoindoline-5-carboxamide], the GI50 is 399 nM in assay [1] and 3340 nM in assay [2]. Turning to `Cc1cn(C(C)C)c2c(-c3ccn[nH]3)cc(C(=O)Nc3ccc(OC(F)(F)Cl)cc3)cc12` [XII-6, N-(4-(chlorodifluoromethoxy)phenyl)-1-isopropyl-3-methyl-7-(1H-pyrazol-5-yl)-1H-indole-5-carboxamide], the figures for the GI50 in assay [1] and in assay [2] were 22 nM and 511 nM, respectively. `CC(C)C(=O)N1CCc2cc(C(=O)Nc3ccc(OC(F)(F)Cl)cc3)cc(-c3ccn[nH]3)c21` [VII-10, N-(4-(chlorodifluoromethoxy)phenyl)-1-isobutyryl-7-(1H-pyrazol-5-yl) indoline-5-carboxamide]: the GI50 in assay [1] was determined as 1160 nM; in assay [2], 3840 nM. Consider `CN1C(=O)c2cc(C(=O)Nc3ccc(OC(F)(F)Cl)cc3)cc(-c3ccncc3)c2C1(C)C` [IV-4, N-(4-(chlorodifluoromethoxy)phenyl)-1,1,2-trimethyl-3-oxo-7-(pyridin-4-yl)isoindoline-5-carboxamide], for which the GI50 in assay [1] was found to be 129 nM; in assay [2], 581 nM. For the molecule `CN1C(=O)c2cc(C(=O)Nc3ccc(OC(F)(F)Cl)cc3)cc(-c3ccn[nH]3)c2C1(C)C` [IV-1, N-(4-(chlorodifluoromethoxy)phenyl)-1,1,2-trimethyl-3-oxo-7-(1H-pyrazol-5-yl)isoindoline-5-carboxamide], the GI50 in assay [1] was found to be 24 nM; in assay [2], 244 nM. For the molecule `CC(=O)N1CC(C)(C)c2c(-c3ccn[nH]3)cc(C(=O)Nc3ccc(OC(F)(F)Cl)cc3)cc21` [III-4, 1-acetyl-N-(4-(chlorodifluoromethoxy)phenyl)-3,3-dimethyl-4-(1H-pyrazol-5-yl)indoline-6-carboxamide], the GI50 came to 22 nM in assay [1] and 176 nM in assay [2].

On to `O=C(Nc1ccc(OC(F)(F)Cl)cc1)c1cc2c(c(-c3ccn[nH]3)c1)N(C1CCCCC1)CC2` [VII-3, N-(4-(chlorodifluoromethoxy)phenyl)-1-cyclohexyl-7-(1H-pyrazol-5-yl) indoline-5-carboxamide], for which the GI50 was found to be 123 nM in assay [1] and 574 nM in assay [2]. For `CC(C)N1CC(C)(C)Oc2cc(C(=O)Nc3ccc(OC(F)(F)Cl)cc3)cc(-c3ccn[nH]3)c21` [IX-5, N-(4-(chlorodifluoromethoxy)phenyl)-4-isopropyl-2,2-dimethyl-5-(1H-pyrazol-5-yl)-3,4-dihydro-2H-benzo[b][1,4]oxazine-7-carboxamide], in that order: 17 nM and 333 nM.

In the case of `CC(C)N1c2c(cc(C(=O)Nc3ccc(OC(F)(F)Cl)cc3)cc2-c2ccn[nH]2)CC1C(=O)N1CC[C@@H](O)C1` (stereo partly drawn) [VII-29, N-(4-(chlorodifluoromethoxy)phenyl)-2-((R)-3-hydroxypyrrolidine-1-carbonyl)-1-isopropyl-7-(1H-pyrazol-5-yl)indoline-5-carboxamide], the values for the GI50 in assay [1] and in assay [2] were 113 nM and 940 nM, respectively. In the case of `O=C(Nc1ccc(OC(F)(F)Cl)cc1)c1cc2c(c(-c3ccn[nH]3)c1)C1(CC(O)C(O)C1)C(=O)N2` (stereo not shown) [V-9, N-(4-(chlorodifluoromethoxy)phenyl)-3,4-dihydroxy-2′-oxo-4′-(1H-pyrazol-5-yl)spiro[cyclopentane-1,3′-indoline]-6′-carboxamide], the GI50 in assay [1] came to 108 nM; in assay [2], 910 nM. Consider `CN1CCC2(C1)C(=O)Nc1cc(C(=O)Nc3ccc(OC(F)(F)Cl)cc3)cc(-c3cc[nH]n3)c12` (stereo not shown) [V-8, N-(4-(chlorodifluoromethoxy)phenyl)-1′-methyl-2-oxo-4-(1H-pyrazol-3-yl)spiro[indoline-3,3′-pyrrolidine]-6-carboxamide], for which the GI50 in assay [1] worked out at 1550 nM.
